PMC12584665, “In vitro and in vivo efficacy of vancomycin against Elizabethkingia species and the impact of increased vancomycin MICs” (Microbiology Spectrum, 2025)
≈ marks a conversion by molar mass, not a printed value. Read-outs that look alike come from different tables or passages of the source.

Legend:
[1] = system: Elizabethkingia anophelis; test: Broth microdilution (BMD) MIC; format: cell-based
Excerpt: Eighteen E. anophelis clinical isolates from the nationwide surveillance program (Taiwan Surveillance of Antimicrobial Resistance) were well characterized in our previous study ([7]) and were selected for susceptibility testing and minimum bactericidal concentration (MBC) assays. Among them, five isolates with different clonality (underlined strains in Fig. S1) were selected for the time-kill assays and in vivo experiments.
Broth microdilution, disc diffusion, Etest, and agar dilution assays were conducted following CLSI guidelines to determine vancomycin MICs ([8]). […] Criteria for Staphylococcus spp. were not adopted due to the lack of a zone diameter breakpoint. MBCs were determined following CLSI guidelines ([8]).

[2] = system: Elizabethkingia anophelis; test: Galleria mellonella (wax moth) infection survival model; format: in vivo; conditions: 72 h
Experimental: (§1) In vivo efficacy was assessed by wax moth (Galleria mellonella), murine pneumonia, and murine thigh infection models following the protocols of our previous study ([2]). The Animal Ethics Committee of Taiwan’s National Health Research Institutes approved the murine pneumonia and thigh infection models.
G. mellonella was reared at the National Health Research Institutes of Taiwan. Caterpillars in the final instar larval stage (weight ca. 250 mg) were used. […] A 10 µL aliquot of E. anophelis at the predetermined lethal dose was injected into the hemocoel of each caterpillar via the last left proleg. Antibiotics were administered once into another proleg at the indicated time points; vancomycin (5, 10, or 20 mg/kg, 2 h post-inoculation); other glycopeptides (teicoplanin, 10 mg/kg, 30 min post-inoculation; dalbavancin, 8.75 mg/kg, 2 h post-inoculation; oritavancin, 15 mg/kg, 1 h post-inoculation) ([11][–][13]); or daptomycin (10 mg/kg, 2 h post-inoculation) ([13]). Each treatment group contained 6–8 caterpillars. A control group injected with sterile PBS was included to monitor for trauma-related mortality. Caterpillars were incubated at 37°C, and survival was recorded twice daily for 72 h.

[3] = Serum drug levels in mice (LC-MS/MS); format: in vivo; conditions: single dose 50 mg/kg intraperitoneal teicoplanin vs 25 or 100 mg/kg subcutaneous vancomycin
Experimental: Fifty microliters of aliquots of murine serum was mixed with 100 µL acetonitrile. The mixture was vortexed and then centrifuged at 15,000 × g for 20 min in a Beckman Coulter Microfuge 22R Centrifuge at room temperature. The supernatant was transferred to a clean tube, and then 15 µL of the supernatant was injected onto LC-MS/MS. The chromatographic system consisted of an Agilent 1200 series LC system and an Agilent ZORBAX Eclipse XDB-C8 column (5 µm, 3.0 × 150 mm) interfaced to an MDS Sciex API3000 tandem mass spectrometer. The MS/MS ion transitions monitored were m/z 725/144 for vancomycin. A gradient HPLC method was employed for separation. Mobile phase A consisted of 10 mM ammonium acetate aqueous solution containing 0.1% formic acid and mobile phase B consisted of acetonitrile. The gradient profile was as follows (min/%B): 0.0–0.9/5, 1.0–2.0/50, 2.1–3.7/95, 3.8–5.0/5. The flow rate was set at 1.5 mL/min.

[4] = system: Elizabethkingia anophelis; test: Murine pneumonia model; format: in vivo, C57BL/6J mice; conditions: 50 mg/kg intraperitoneal twice daily
Experimental: as §1
For the pneumonia model, a bacterial suspension was mixed with 5% mucin from porcine stomach (type 3; Sigma-Aldrich, Saint Louis, USA). Seven-week-old C57BL/6J mice were anesthetized with isoflurane for 10 min. For each strain, the inoculum corresponded to the lowest dose that caused >80% mortality in preliminary testing. This inoculum (10⁶–10⁸ cfu, depending on strain) was delivered intratracheally to induce pneumonia. Two hours thereafter, mice received either high or human-equivalent doses of subcutaneous vancomycin (100 mg/kg or 25 mg/kg, respectively) or intraperitoneal teicoplanin (50 mg/kg) ([17]) twice daily for 3 days. Each group contained eight mice, and survival was monitored for 3 days.

[5] = system: Elizabethkingia anophelis; test: Murine neutropenic thigh infection model; format: in vivo, C57BL/6J mice; conditions: 50 mg/kg intraperitoneal, 2 h and 14 h after inoculation
Experimental: as §1
For the thigh infection model, seven-week-old C57BL/6J mice were rendered neutropenic by intraperitoneal injections of cyclophosphamide (Cytoxan; Bristol-Myers Squibb, Princeton, NJ, USA) 4 days (150 mg/kg) and 1 day (100 mg/kg) before bacterial inoculation. A 30 µL aliquot containing the E. anophelis (10^7 cfu) was injected into each of the two rear thighs. Vancomycin (25 mg/kg or 100 mg/kg, subcutaneous) or teicoplanin (50 mg/kg, intraperitoneal) was administered 2 h and 14 h after inoculation. Mice were sacrificed 24 h post-inoculation, and homogenized thigh tissue was plated in serial 10-fold dilutions on brain-heart infusion agar to determine bacterial counts. Each mouse, not each thigh, was considered an individual data point.

[6] = Elizabethkingia anophelis, E. anophelis clinical isolate 2008N05-106, read-out: MIC, BMD
[7] = Elizabethkingia anophelis, E. anophelis clinical isolate 2008S01-229, read-out: MIC, BMD
[8] = Elizabethkingia anophelis, E. anophelis clinical isolate 2014C06-157, read-out: MIC, BMD
[9] = Elizabethkingia anophelis, E. anophelis clinical isolate 2016N17-576, read-out: MIC, BMD
[10] = Elizabethkingia anophelis, E. anophelis clinical isolate 2018C04-213, read-out: MIC, BMD
[11] = Elizabethkingia anophelis, E. anophelis clinical isolate 2018C04-224, read-out: MIC, BMD
[12] = Elizabethkingia anophelis, E. anophelis clinical isolate 2018C07-210, read-out: MIC, BMD
[13] = Elizabethkingia anophelis, E. anophelis clinical isolate 2018C07-234, read-out: MIC, BMD
[14] = Elizabethkingia anophelis, E. anophelis clinical isolate 2018C08-127, read-out: MIC, BMD
[15] = Elizabethkingia anophelis, E. anophelis clinical isolate 2018E03-151, read-out: MIC, BMD
[16] = Elizabethkingia anophelis, E. anophelis clinical isolate 2018E04-135, read-out: MIC, BMD
[17] = Elizabethkingia anophelis, E. anophelis clinical isolate 2018N16-057, read-out: MIC, BMD
[18] = Elizabethkingia anophelis, E. anophelis clinical isolate 2018N17-036, read-out: MIC, BMD
[19] = Elizabethkingia anophelis, E. anophelis clinical isolate 2018N17-073, read-out: MIC, BMD
[20] = Elizabethkingia anophelis, E. anophelis clinical isolate 2018N17-153, read-out: MIC, BMD
[21] = Elizabethkingia anophelis, E. anophelis clinical isolate 2018N21-226, read-out: MIC, BMD
[22] = Elizabethkingia anophelis, E. anophelis clinical isolate 2018S09-023, read-out: MIC, BMD
[23] = Elizabethkingia anophelis, E. anophelis clinical isolate 2018S11-172, read-out: MIC, BMD
[24] = E. anophelis used in the G. mellonella assays of Fig. S4, isolate and method not given

## C[C@H]1COc2c(N3CCN(C)CC3)c(F)cc3c(=O)c(C(=O)O)cn1c23 [Levofloxacin]
[1]; [6]
  MIC: > 8 µg/mL
[1]; [7]
  MIC: ≤ 1 µg/mL
[1]; [8]
  MIC: > 8 µg/mL
[1]; [9]
  MIC: > 8 µg/mL
[1]; [10]
  MIC: > 8 µg/mL
[1]; [11]
  MIC: > 8 µg/mL
[1]; [12]
  MIC: > 8 µg/mL
[1]; [13]
  MIC: > 8 µg/mL
[1]; [14]
  MIC: 2 µg/mL (≈ 5.53 µM)
[1]; [15]
  MIC: 2 µg/mL (≈ 5.53 µM)
[1]; [16]
  MIC: ≤ 1 µg/mL
[1]; [17]
  MIC: ≤ 1 µg/mL
[1]; [18]
  MIC: > 8 µg/mL
[1]; [19]
  MIC: > 8 µg/mL
[1]; [20]
  MIC: > 8 µg/mL
[1]; [21]
  MIC: ≤ 1 µg/mL
[1]; [22]
  MIC: ≤ 1 µg/mL
[1]; [23]
  MIC: 2 µg/mL (≈ 5.53 µM)

## CN(C)c1ccc(O)c2c1C[C@H]1C[C@H]3[C@H](N(C)C)C(O)=C(C(N)=O)C(=O)[C@@]3(O)C(O)=C1C2=O [Minocycline]
[1]; [6]
  MIC: ≤ 2 µg/mL
[1]; [7]
  MIC: ≤ 2 µg/mL
[1]; [8]
  MIC: ≤ 2 µg/mL
[1]; [9]
  MIC: ≤ 2 µg/mL
[1]; [10]
  MIC: ≤ 2 µg/mL
[1]; [11]
  MIC: ≤ 2 µg/mL
[1]; [12]
  MIC: ≤ 2 µg/mL
[1]; [13]
  MIC: ≤ 2 µg/mL
[1]; [14]
  MIC: ≤ 2 µg/mL
[1]; [15]
  MIC: ≤ 2 µg/mL
[1]; [16]
  MIC: ≤ 2 µg/mL
[1]; [17]
  MIC: ≤ 2 µg/mL
[1]; [18]
  MIC: ≤ 2 µg/mL
[1]; [19]
  MIC: ≤ 2 µg/mL
[1]; [20]
  MIC: ≤ 2 µg/mL
[1]; [21]
  MIC: ≤ 2 µg/mL
[1]; [22]
  MIC: ≤ 2 µg/mL
[1]; [23]
  MIC: ≤ 2 µg/mL

## CN[C@H]1C(=O)N[C@@H]2Cc3ccc(cc3)Oc3cc4cc(c3O[C@@H]3O[C@H](C(=O)O)[C@@H](O)[C@H](O)[C@H]3NC(=O)CCCCCCCCC(C)C)Oc3ccc(cc3Cl)[C@@H](O)[C@@H]3NC(=O)[C@H](NC(=O)[C@@H]4NC(=O)[C@@H](NC2=O)c2cc(cc(O)c2Cl)Oc2cc1ccc2O)c1ccc(O)c(c1)-c1c(O[C@H]2O[C@H](CO)[C@@H](O)[C@H](O)[C@@H]2O)cc(O)cc1[C@@H](C(=O)NCCCN(C)C)NC3=O [dalbavancin]
[2]; 8.75 mg/kg once, 2 h post-inoculation
  survival of infected wax moths: no survival benefit
[1]; [24]
  MICs: 64 mg/L

## CCCCCCCCCC(=O)N[C@@H](Cc1c[nH]c2ccccc12)C(=O)N[C@H](CC(N)=O)C(=O)N[C@@H](CC(=O)O)C(=O)N[C@@H]1C(=O)NCC(=O)N[C@@H](CCCN)C(=O)N[C@@H](CC(=O)O)C(=O)N[C@H](C)C(=O)N[C@@H](CC(=O)O)C(=O)NCC(=O)N[C@H](CO)C(=O)N[C@@H]([C@H](C)CC(=O)O)C(=O)N[C@@H](CC(=O)c2ccccc2N)C(=O)O[C@@H]1C [daptomycin]
[2]; 10 mg/kg once, 2 h post-inoculation
  survival of infected wax moths: no survival benefit
[1]; E. anophelis used in the G. mellonella assays of Fig. S4, isolate and method not given, read-out: MICs
  MIC: 128 µg/mL (≈ 79 µM)

## CN[C@H](CC(C)C)C(=O)N[C@H]1C(=O)N[C@@H](CC(N)=O)C(=O)N[C@H]2C(=O)N[C@H]3C(=O)N[C@H](C(=O)N[C@H](C(=O)O)c4cc(O)cc(O)c4-c4cc3ccc4O)[C@H](O[C@H]3C[C@](C)(N)[C@@H](O)[C@H](C)O3)c3ccc(c(Cl)c3)Oc3cc2cc(c3O[C@@H]2O[C@H](CO)[C@@H](O)[C@H](O)[C@H]2O[C@H]2C[C@](C)(NCc3ccc(-c4ccc(Cl)cc4)cc3)[C@@H](O)[C@H](C)O2)Oc2ccc(cc2Cl)[C@H]1O [oritavancin]
[2]; 15 mg/kg once, 1 h post-inoculation
  survival of infected wax moths: no survival benefit
[1]; read-out: MICs, E. anophelis used in the G. mellonella assays of Fig. S4, isolate and method not given
  MIC: 64 µg/mL (≈ 35.7 µM)

## Teicoplanin
[2]; 10 mg/kg once, 30 min post-inoculation
  survival of infected wax moths: no survival benefit
[3]
  concentration in murine serum relative to vancomycin: much higher than that of vancomycin
[4]
  survival of infected mice: little effect
[5]
  reduction of bacterial loads in thigh: little effect
[1]; E. anophelis clinical isolate 2008N05-106
  MIC, BMD: 128 µg/mL
[1]; E. anophelis clinical isolate 2008S01-229
  MIC, BMD: 128 µg/mL
[1]; E. anophelis clinical isolate 2014C06-157
  MIC, BMD: 128 µg/mL
[1]; E. anophelis clinical isolate 2016N17-576
  MIC, BMD: 128 µg/mL
[1]; E. anophelis clinical isolate 2018C04-213
  MIC, BMD: 128 µg/mL
[1]; E. anophelis clinical isolate 2018C04-224
  MIC, BMD: 128 µg/mL
[1]; E. anophelis clinical isolate 2018C07-210
  MIC, BMD: 256 µg/mL
[1]; E. anophelis clinical isolate 2018C07-234
  MIC, BMD: 256 µg/mL
[1]; E. anophelis clinical isolate 2018C08-127
  MIC, BMD: 128 µg/mL
[1]; E. anophelis clinical isolate 2018E03-151
  MIC, BMD: 128 µg/mL
[1]; E. anophelis clinical isolate 2018E04-135
  MIC, BMD: 64 µg/mL
[1]; E. anophelis clinical isolate 2018N16-057
  MIC, BMD: 128 µg/mL
[1]; E. anophelis clinical isolate 2018N17-036
  MIC, BMD: 128 µg/mL
[1]; E. anophelis clinical isolate 2018N17-073
  MIC, BMD: 128 µg/mL
[1]; E. anophelis clinical isolate 2018N17-153
  MIC, BMD: 128 µg/mL
[1]; E. anophelis clinical isolate 2018N21-226
  MIC, BMD: 64 µg/mL
[1]; E. anophelis clinical isolate 2018S09-023
  MIC, BMD: 64 µg/mL
[1]; E. anophelis clinical isolate 2018S11-172
  MIC, BMD: 64 µg/mL
[1]; [24]
  MICs: 128 mg/L
